The results in this text go back to patent publication EP0970046B1, “N-HYDROXY-2-(ALKYL, ARYL, OR HETEROARYL SULFANYL, SULFINYL OR SULFONYL)-3-SUBSTITUTED ALKYL, ARYL OR HETEROARYLAMIDES AS MATRIX METALLOPROTEINASE INHIBITORS” (Wyeth Holdings Corporation, priority 1997, dated 1998).

Read-outs that look alike come from different tables or passages of the source.

Assay type in all cases: biochemical
One experiment concerns the target T1, MMP 9 (Homo sapiens, UniProt P14780).
T1 construct: from tissue; host or cells: human neutrophils
The experiment is described as follows: In Vitro Gelatinase Assay. To be noted: human neutrophil gelatinase B; for IC50: read-out: MMP 9 IC 50; for inhibition at 1 µM: read-out: MMP 9 % inhibition at 1 micromolar, 1 micromolar. The method, then: The assay is based on the cleavage of the thiopeptide substrate ((Ac-Pro-Leu-Gly(2 mercapto-4 methyl-pentanoyl)-Leu-Gly-OEt), Bachem Bioscience) by the enzyme, gelatinase, releasing the substrate product which reacts colorimetrically with DTNB ((5,5'-dithio-bis(2-nitro-benzoic acid)). The enzyme activity is measured by the rate of the color increase. The thiopeptide substrate is made up fresh as a 20 mM stock in 100% DMSO and the DTNB is dissolved in 100% DMSO as a 100 mM stock and stored in dark at room temperature. Both the substrate and DTNB are diluted together to 1 mM with substrate buffer (50 mM HEPES pH 7.5, 5 mM CaCl2) before use. […] The increase in OD405 is plotted and the slope of the line is calculated which represents the reaction rate. The linearity of the reaction rate is confirmed (r^2 >0.85). The mean (x ± sem) of the control rate is calculated and compared for statistical significance (p <0.05) with drug-treated rates using Dunnett's multiple comparison test.

In another experiment the target is MMP 13 (Homo sapiens, UniProt P45452). The experiment is described as follows: MMP 13 inhibition (IC50 / manual assay; method not described). To be noted: for IC50: read-out: MMP 13 IC 50; for inhibition at 1 µM: read-out: MMP 13 % inhibition at 1 micromolar.
A further experiment concerns the target T2, TACE (Homo sapiens, UniProt P78536).
T2 construct: purchased Immunex
The experiment is described as follows: Procedure for Measuring TACE Inhibition. Particulars: for inhibition at 1 µM: read-out: TACE % inhibition at 1 micromolar. The gist of the method:
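Single-concentration screen: test compound at 1 µM final, 10-min room-temperature preincubation with 1 µg/mL protease in Tris pH 7.4 buffer containing glycerol. Initial rate from linear fluorescence increase (340/420 nm) over 10 min after adding 100 µM peptidyl substrate; significance versus control rate by Dunnett's test.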

The next experiment has as its target T3, MMP 1 (Homo sapiens, UniProt P03956).
T3 construct: human recombinant fibroblast collagenase (truncated, mw= 18,828, WAR, Radnor)
T3 sequence (P03956 100-269 limits assumed): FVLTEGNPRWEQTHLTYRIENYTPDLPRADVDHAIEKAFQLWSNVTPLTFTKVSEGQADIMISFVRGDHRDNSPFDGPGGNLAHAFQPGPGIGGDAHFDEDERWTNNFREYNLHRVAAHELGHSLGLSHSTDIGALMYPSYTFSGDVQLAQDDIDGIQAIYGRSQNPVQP
The experiment is described as follows: In Vitro Collagenase Assay. To be noted: human recombinant fibroblast collagenase; for IC50: read-out: MMP 1 IC 50; for inhibition at 1 µM: read-out: MMP 1 % inhibition at 1 micromolar, 1 micromolar. The method, then: The assay is based on the cleavage of a peptide substrate ((Dnp-Pro-Cha-Gly-Cys(Me)-His-Ala-Lys(NMa)-NH2), Peptide International, Inc.) by collagenase releasing the fluorescent NMa group which is quantitated on the fluorometer. Dnp quenches the NMa fluorescence in the intact substrate. […] Substrate is dissolved in methanol and stored frozen in 1 mM aliquots. […] For the assay, substrate is dissolved in HCBC buffer to a final concentration of 10 µM and collagenase to a final concentration of 5 nM. Compounds are dissolved in methanol, DMSO, or HCBC. The methanol and DMSO are diluted in HCBC to < 1.0%. Compounds are added to the 96 well plate containing enzyme and the reaction is started by the addition of substrate.
The slope of the line is calculated and represents the reaction rate.
The linearity of the reaction rate is confirmed (r^2 >0.85). The mean (x ± sem) of the control rate is calculated and compared for statistical significance (p <0.05) with drug-treated rates using Dunnett's multiple comparison test.

T2 sequence (P78536 215-824): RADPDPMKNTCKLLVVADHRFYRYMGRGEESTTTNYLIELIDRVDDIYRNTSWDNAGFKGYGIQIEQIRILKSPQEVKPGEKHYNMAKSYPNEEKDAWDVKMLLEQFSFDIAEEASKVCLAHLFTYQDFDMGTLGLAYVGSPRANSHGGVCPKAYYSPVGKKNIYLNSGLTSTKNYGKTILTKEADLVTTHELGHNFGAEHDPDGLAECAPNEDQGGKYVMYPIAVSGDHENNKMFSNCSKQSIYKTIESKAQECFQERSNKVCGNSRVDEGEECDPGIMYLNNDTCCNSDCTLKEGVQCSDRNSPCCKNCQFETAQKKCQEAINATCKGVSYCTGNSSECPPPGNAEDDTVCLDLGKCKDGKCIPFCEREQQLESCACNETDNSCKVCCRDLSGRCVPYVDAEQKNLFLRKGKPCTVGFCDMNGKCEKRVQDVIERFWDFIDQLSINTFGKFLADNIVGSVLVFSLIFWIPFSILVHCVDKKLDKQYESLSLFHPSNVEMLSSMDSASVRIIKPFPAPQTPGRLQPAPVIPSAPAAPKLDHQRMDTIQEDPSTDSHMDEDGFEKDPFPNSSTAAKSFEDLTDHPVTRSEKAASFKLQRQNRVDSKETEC
T1 sequence (P14780 94-707): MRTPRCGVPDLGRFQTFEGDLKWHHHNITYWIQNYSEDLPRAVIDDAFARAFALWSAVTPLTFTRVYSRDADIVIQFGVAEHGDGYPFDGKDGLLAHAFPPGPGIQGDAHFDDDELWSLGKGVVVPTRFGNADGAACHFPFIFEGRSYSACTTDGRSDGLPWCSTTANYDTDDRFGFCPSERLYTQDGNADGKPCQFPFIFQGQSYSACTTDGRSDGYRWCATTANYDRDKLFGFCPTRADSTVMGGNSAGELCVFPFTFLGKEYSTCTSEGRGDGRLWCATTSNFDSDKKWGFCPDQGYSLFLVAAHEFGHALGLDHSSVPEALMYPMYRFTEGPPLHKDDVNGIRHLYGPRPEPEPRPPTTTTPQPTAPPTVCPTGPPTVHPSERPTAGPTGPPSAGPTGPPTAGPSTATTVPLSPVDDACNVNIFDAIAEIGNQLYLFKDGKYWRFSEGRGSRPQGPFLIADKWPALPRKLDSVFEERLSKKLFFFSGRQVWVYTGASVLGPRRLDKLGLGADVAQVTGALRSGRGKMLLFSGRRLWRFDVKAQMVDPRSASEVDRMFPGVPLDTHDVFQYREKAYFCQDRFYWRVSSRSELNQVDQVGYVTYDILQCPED

As a reminder, the inhibition is the relative decrease from the control value, in per cent. On to `CC#CCC(CC#CC)(C(=O)NO)S(=O)(=O)c1ccc(F)cc1` [Example 78, 2-(4-Fluoro-benzenesulfonyl)-2-but-2-ynyl-hex-4-ynoic acid hydroxyamide], for which the IC50 is 560 nM on MMP 9 and 34 nM at MMP 13. Further, on TACE, the inhibition at 1 µM turned out to be 24.6%.
In the case of `COc1ccc(S(=O)(=O)C(CCCCOc2ccccc2)(Cc2cccnc2)C(=O)NO)cc1` (centres unmarked) [Example 68, 2-(4-Methoxy-benzenesulfonyl)-6-phenoxy-2-pyridin-3-ylmethyl-hexanoic acid hydroxyamide], the IC50 on MMP 9 was 29 nM; on MMP 13, 27 nM; at TACE (read-out: TACE IC 50), 522 nM.
Consider `COc1ccc(S(=O)(=O)C2(C(=O)NO)CCN(C(C)C)CC2)cc1` [Example 96, 1-Isopropyl-4-(4-methoxy-benzenesulfonyl)-piperidine-4-carboxylic acid hydroxyamide], for which the IC50 at MMP 1 came to 4440 nM; on MMP 9, 374 nM; at MMP 13, 33.8 nM.
With `COc1ccc([S+]([O-])C(C)(Cc2ccccc2)C(=O)NO)cc1` (centres unmarked) [Example 5, N-Hydroxy-2-(4-methoxy-benzenesulfinyl)-2-methyl-3-phenyl-propionamide], the IC50 at MMP 9 came out at 7.7 nM; at MMP 13, 4.7 nM. On TACE, the inhibition at 1 µM is 25%.
Turning to `COc1ccc(S(=O)(=O)C(C/C=C(\C)CCC=C(C)C)(Cc2ccc(OCCN3CCOCC3)cc2)C(=O)NO)cc1` (centres unmarked) [Example 26, (4E)-2-(4-Methoxy-benzenesulfonyl)-5,9-dimethyl-2-[4-(2-morpholin-4-yl-ethoxy) - benzyl]-deca-4,8-dienoic acid hydroxyamide], the results for the IC50 at MMP 1, on MMP 9 and at MMP 13 were 305 nM, 6.3 nM and 3.2 nM, respectively.
Regarding `CCOc1ccc(S(=O)(=O)C(C)(Cc2ccc(OCCN(CC)CC)cc2)C(=O)NO)cc1` (centres unmarked) [Example 25, N-Hydroxy-2-(4-ethoxy-benzenesulfonyl)-2-methyl-3-[4-(2-N,N-diethylamino-ethoxy)-phenyl]-propionamide], the IC50 amounted to 26.7 nM at MMP 9 and 8 nM on MMP 13.
`COc1ccc(SC(C)(Cc2ccccc2)C(=O)NO)cc1` (centres unmarked) [Example 1, N-Hydroxy-2-(4-methoxy-phenylsulfanyl)-2-methyl-3-phenyl-propionamide]: the values for the IC50 at MMP 9 and on MMP 13 were 560 nM and 193 nM, respectively. Besides, the inhibition at 1 µM on TACE came out at 31.6%.
For `COc1ccc(SC(C)(CC=C(C)C)C(=O)NO)cc1` (centres unmarked) [Example 3, 2-(4-Methoxy-phenylsulfanyl)-2,5-dimethyl-hex-4-enoic acid hydroxyamide], in that order: 309 nM, 169 nM and 27.4%.
With `CCCCC(Cc1ccc(OCCN(CC)CC)cc1)(C(=O)NO)S(=O)(=O)c1ccc(OC)cc1` (centres unmarked) [Example 27, 2-[4-(2-Diethylamino-ethoxy)-benzyl]-2-(4-methoxy-benzenesulfonyl)-hexanoic acid hydroxyamide], the IC50 at MMP 1 was found to be 629 nM; at MMP 9, 106 nM; at MMP 13, 30.1 nM.
On the same counts, the results for `CCCCC[C@H](C(=O)NO)[S@+]([O-])c1ccc(OC)cc1` (stereo in doubt) [Example 81a, 2R*-(4-methoxy-phenyl-S*- sulfinyl)-heptanoic acid hydroxyamide] are 2040 nM, 231 nM and 43.9 nM.
As to `CCCCCCC(Sc1ccc(OC)cc1)C(=O)NO` (centres unmarked) [Example 37, 2-(4-Methoxy-benzenesulfanyl)-octanoic acid hydroxyamide], the inhibition at 1 µM turned out to be 9% at MMP 1, 31.6% at MMP 9 and 14.3% at MMP 13.
For the compound `CC#CCC(Cc1cccnc1)(C(=O)NO)S(=O)(=O)c1ccc(F)cc1` (centres unmarked) [Example 76, 2-(4-Fluoro-benzenesulfonyl)-2-pyridin-3-ylmethyl-hex-4-ynoic acid hydroxyamide], the values for the IC50 at MMP 1 and at MMP 13 were 805 nM and 500 nM, respectively.
On to `COc1ccc(S(=O)(=O)C2(C(=O)NO)CCN(CCc3ccccc3)CC2)cc1` [Example 103, 4-(4-methoxy-benzenesulfonyl)-1-(2-phenyl-ethyl)-piperidine-4-carboxylic acid hydroxyamide], for which the IC50 at MMP 9 was 45.1 nM; at MMP 13, 8.8 nM; at TACE, 470 nM.
Consider `CCN(CC)CCOc1ccc(CC(C)(C(=O)NO)S(=O)(=O)c2ccc(-c3ccco3)cc2)cc1` (centres unmarked) [Example 32, 3-[4-(2-Diethylamino-ethoxy)-phenyl]-2-(4-furan-2-yl-benzenesulfonyl)-N-hydroxy-2-methyl-propionamide], for which the figures for the IC50 on MMP 1, at MMP 9 and at MMP 13 were 13.7 nM, 3.7 nM and 1 nM, respectively.
In the case of `CC(C)=CCC(CC=C(C)C)(C(=O)NO)S(=O)(=O)c1ccc(C)cc1` [Example 42, 5-Methyl-2-(3-methyl-but-2-enyl)-2-(toluene-4-sulfonyl)-hex-4-enoic acid hydroxyamide], the results for the IC50 on MMP 9 and on MMP 13 were 50.9 nM and 6.2 nM, respectively.
Regarding `COc1ccc(S(=O)(=O)C(CC=C(C)C)(Cc2ccc(OCCN3CCOCC3)cc2)C(=O)NO)cc1` (centres unmarked) [Example 24, 2-(4-Methoxy-benzenesulfonyl)-5-methyl-2-[4-(2-morpholin-4-yl-ethoxy)-benzyl]-hex-4-enoic acid hydroxyamide], the IC50 at MMP 1 came out at 413 nM; at MMP 9, 20.9 nM; at MMP 13, 31.3 nM.
In the case of `CCCC(Cc1ccc(OCCN2CCOCC2)cc1)(C(=O)NO)S(=O)(=O)c1ccc(OC)cc1` (centres unmarked) [Example 35, 2-(4-Methoxy-benzenesulfonyl)-2-[4-(2-morpholin-4-yl-ethoxy)-benzyl]-pentanoic acid hydroxyamide], the IC50 at MMP 1 was found to be 456 nM; at MMP 9 it was 234 nM; on MMP 13 it was 48.2 nM.
Consider `CCCCCCC(Sc1nccn1C)C(=O)NO` (centres unmarked) [Example 39, 2-(1-methyl-1H-imidazol-2-ylsulfanyl)-octanoic acid hydroxyamide], for which the figures for the inhibition at 1 µM at MMP 1, on MMP 9 and at MMP 13 were 29.4%, 35.2% and 26.6%, respectively.
In the case of `COc1ccc(SC(C(=O)NO)c2ccccc2)cc1` (centres unmarked) [Example 2, N-Hydroxy-2-(4-methoxy-phenylsulfanyl)-2-phenyl-acetamide], the figures for the inhibition at 1 µM on MMP 9 and at MMP 13 were 10.5% and 0%, respectively. The IC50 on TACE (read-out: TACE IC 50) came to 403 nM.
Take `COc1ccc(S(=O)(=O)C(CCC(C)C)(Cc2cccnc2)C(=O)NO)cc1` (centres unmarked) [Example 69, 2-(4-Methoxy-benzenesulfonyl)-5-methyl-2-pyridin-3-ylmethyl-hexanoic acid hydroxyamide]: the IC50 on MMP 1 came out at 575 nM; on MMP 13, 90 nM. Besides, the inhibition at 1 µM at TACE was 41.3%.
On to `COc1ccc(S(=O)(=O)C2(C(=O)NO)CCN(C(C)(C)C)CC2)cc1` [Example 92, 1-Tert-butyl-4-(4-methoxy-benzenesulfonyl)-piperidine-4-carboxylic acid hydroxyamide], for which the inhibition at 1 µM at MMP 1 turned out to be 59.6%. Further, the IC50 on MMP 9 is 649 nM; at MMP 13, 148 nM.
Regarding `CCCCCC#CCC(Cc1cccnc1)(C(=O)NO)S(=O)(=O)c1ccc(F)cc1` (centres unmarked) [Example 77, 2-(4-Fluoro-benzenesulfonyl)-2-pyridin-3-ylmethyl-dec-4-ynoic acid hydroxyamide], the IC50 at MMP 1 came out at 206 nM; at MMP 13 it was 170 nM.
For `CC(C(=O)O)S(=O)(=O)CCCCCCCCS(=O)(=O)C(C)C(=O)NO` (centres unmarked) [Example 49, 2-[8-(1-carboxy-ethanesulfonyl)-octane-1-sulfonyl]-propionic acid hydroxyamide], the inhibition at 1 µM at MMP 1 was found to be 10.1%; on MMP 9 it was 23.7%; on MMP 13 it was 54.6%.
